Reference: patent US9980943B2, “Methods of treating muscular dystrophy” (BOARD OF REGENTS OF THE NEVADA SYSTEM OF HIGHER EDUCATION, …, priority 2013, dated 2018)

Legend:
Assay type in all cases: cell-based, mouse
[1] = test system: α7 integrin (LacZ reporter in α7βgal+/− myoblasts); assay: Myoblast α7+/LacZ integrin FDG assay (Burkin assay in myoblasts, 96-well); settings: α7+/LacZ myoblasts, 96-well
[2] = test system: α7 integrin (LacZ reporter in α7+/LacZ myotubes); assay: Myotube α7 integrin FDG assay (Burkin assay in myotubes, 96-well); settings: myotubes
[3] = test system: β-galactosidase in CMV-LacZ C2C12 myotubes; assay: CMV-LacZ secondary screen in C2C12 myotubes (β-Gal stabilizing assay); settings: for CMV-LACZ in Myotubes, signal relative to DMSO: C2C12 CMV-LacZ myotubes, fold relative to DMSO; for CMV-LACZ in Myotubes (β-galactosidase activity relative to DMSO): CMV-LacZ C2C12 myotubes, 96-well format
Summary of the method: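 CMV-LacZ C2C12 line (clonal, FDG-screened); myoblasts/myotubes dosed 0.5–40 μM (0.5, 1, 5, 10, 20, 40 μM); n=2 per point; β-gal stabilization read-out.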

SMILES | Burkin Assay in Myoblasts, signal relative to DMSO ([1]; 0.5 uM) | Burkin Assay in Myoblasts, signal relative to DMSO ([1]; 1 uM) | Burkin Assay in Myoblasts, signal relative to DMSO ([1]; 5 uM) | Burkin Assay in Myoblasts, signal relative to DMSO ([1]; 10 uM) | Burkin Assay in Myoblasts, signal relative to DMSO ([1]; 20 uM) | Burkin Assay in Myoblasts, signal relative to DMSO ([1]; 40 uM) | Burkin Assay in Myotubes, α7 integrin LacZ reporter signal relative to DMSO ([2]; 0.5 uM) | Burkin Assay in Myotubes, α7 integrin LacZ reporter signal relative to DMSO ([2]; 1 uM) | Burkin Assay in Myotubes, α7 integrin LacZ reporter signal relative to DMSO ([2]; 5 uM) | Burkin Assay in Myotubes, α7 integrin LacZ reporter signal relative to DMSO ([2]; 10 uM) | Burkin Assay in Myotubes, α7 integrin LacZ reporter signal relative to DMSO ([2]; 20 uM) | Burkin Assay in Myotubes, α7 integrin LacZ reporter signal relative to DMSO ([2]; 40 uM) | CMV-LACZ in Myotubes, signal relative to DMSO ([3]; 5 uM) | CMV-LACZ in Myotubes, signal relative to DMSO ([3]; 10 uM) | CMV-LACZ in Myotubes, signal relative to DMSO ([3]; 20 uM) | CMV-LACZ in Myotubes, signal relative to DMSO ([3]; 40 uM) | Burkin Assay in Myoblasts, value relative to DMSO ([1]; 0.5 uM) | Burkin Assay in Myoblasts, value relative to DMSO ([1]; 1 uM) | Burkin Assay in Myoblasts, value relative to DMSO ([1]; 5 uM) | Burkin Assay in Myoblasts, value relative to DMSO ([1]; 10 uM) | other results
O=c1oc2c(-c3cccc(F)c3)cc(O)cc2s1 [MLS000680049-01] | 0.9998 | 1.103 | 0.9693 | 0.9727 | 0.7493 | 0.6354 | 0.8875 | 1.056 | 1.047 | 1.22 | 0.8731 | 0.4379 | 1.127 | 1.106 | 1.4405 | 0.4315 | – | – | – | – | –
CC1CCN(S(=O)(=O)c2ccc(S(=O)(=O)N3CCCC3)cc2)CC1 [MLS001217673-01] | 0.8494 | 0.8343 | 0.9353 | 0.9256 | 0.8325 | 0.8079 | 0.8894 | 0.749 | 0.9699 | 0.9516 | 1.095 | 1.078 | 0.936 | 0.9409 | 1.161 | 0.9352 | – | – | – | – | –
O=C(Nc1ccccc1F)c1ccc([N+](=O)[O-])s1 [MLS000703499-01] | 0.7093 | 1.017 | 0.9278 | 0.7632 | 0.4465 | 0.1043 | 0.9725 | 0.8809 | 1.059 | 0.8518 | 1.101 | 0.4494 | 0.9313 | 0.9968 | 0.689 | 0.769 | – | – | – | – | –
O=C(O)CCCNC(=O)CCn1nnc2ccccc2c1=O [MLS000806880-01] | 1.097 | 1.129 | 1.009 | 0.9524 | 0.9957 | 1.056 | 0.735 | 0.8731 | 0.9094 | 0.996 | 1.057 | 0.9353 | 0.9654 | 1.13 | 0.9145 | 1.0655 | – | – | – | – | –
COc1ccc(N2CCCC2)c(NC(=O)c2ccc([N+](=O)[O-])o2)c1 [MLS001221619-01] | – | – | – | – | – | – | – | – | – | – | – | – | – | – | – | – | 0.6855 | 0.7633 | 0.7367 | 0.6764 | Burkin Assay in Myoblasts, value relative to DMSO ([1]; 20 uM): 0.9648; Burkin Assay in Myoblasts, value relative to DMSO ([1]; 40 uM): 0.8976; Burkin Assay in Myotubes (signal relative to DMSO) ([2]; 0.5 uM): 0.826; Burkin Assay in Myotubes (signal relative to DMSO) ([2]; 1 uM): 0.9557; Burkin Assay in Myotubes (signal relative to DMSO) ([2]; 5 uM): 0.944; Burkin Assay in Myotubes (signal relative to DMSO) ([2]; 10 uM): 1.012; Burkin Assay in Myotubes (signal relative to DMSO) ([2]; 20 uM): 0.8603; Burkin Assay in Myotubes (signal relative to DMSO) ([2]; 40 uM): 1.034; CMV-LACZ in Myotubes (β-galactosidase activity relative to DMSO) ([3]; 5 uM): 1.172; CMV-LACZ in Myotubes (β-galactosidase activity relative to DMSO) ([3]; 10 uM): 1.321; CMV-LACZ in Myotubes (β-galactosidase activity relative to DMSO) ([3]; 20 uM): 1.513; CMV-LACZ in Myotubes (β-galactosidase activity relative to DMSO) ([3]; 40 uM): 1.781
CN(C)S(=O)(=O)c1cccc(C(=O)Nc2ccc3c(c2)CCC3)c1 [MLS001176611-01] | – | – | – | – | – | – | – | – | – | – | – | – | – | – | – | – | 1.049 | 0.994 | 1.097 | 1.072 | Burkin Assay in Myoblasts, value relative to DMSO ([1]; 20 uM): 0.8398; Burkin Assay in Myoblasts, value relative to DMSO ([1]; 40 uM): 0.9134; Burkin Assay in Myotubes (signal relative to DMSO) ([2]; 0.5 uM): 0.9506; Burkin Assay in Myotubes (signal relative to DMSO) ([2]; 1 uM): 0.6671; Burkin Assay in Myotubes (signal relative to DMSO) ([2]; 5 uM): 1.066; Burkin Assay in Myotubes (signal relative to DMSO) ([2]; 10 uM): 0.9301; Burkin Assay in Myotubes (signal relative to DMSO) ([2]; 20 uM): 0.9665; Burkin Assay in Myotubes (signal relative to DMSO) ([2]; 40 uM): 0.9846; CMV-LACZ in Myotubes (β-galactosidase activity relative to DMSO) ([3]; 5 uM): 0.9287; CMV-LACZ in Myotubes (β-galactosidase activity relative to DMSO) ([3]; 10 uM): 1.235; CMV-LACZ in Myotubes (β-galactosidase activity relative to DMSO) ([3]; 20 uM): 1.034; CMV-LACZ in Myotubes (β-galactosidase activity relative to DMSO) ([3]; 40 uM): 0.785
CCCCS(=O)(=O)N1CCCC(C(=O)NCCc2ccccc2)C1 (centres unmarked) [MLS001163121-01] | – | – | – | – | – | – | – | – | – | – | – | – | – | – | – | – | 1.049 | 1.012 | 0.9488 | 0.9907 | Burkin Assay in Myoblasts, value relative to DMSO ([1]; 20 uM): 0.8074; Burkin Assay in Myoblasts, value relative to DMSO ([1]; 40 uM): 0.9157; Burkin Assay in Myotubes (signal relative to DMSO) ([2]; 0.5 uM): 1.052; Burkin Assay in Myotubes (signal relative to DMSO) ([2]; 1 uM): 0.9895; Burkin Assay in Myotubes (signal relative to DMSO) ([2]; 5 uM): 0.9395; Burkin Assay in Myotubes (signal relative to DMSO) ([2]; 10 uM): 1.173; Burkin Assay in Myotubes (signal relative to DMSO) ([2]; 20 uM): 1.07; Burkin Assay in Myotubes (signal relative to DMSO) ([2]; 40 uM): 1.09; CMV-LACZ in Myotubes (β-galactosidase activity relative to DMSO) ([3]; 5 uM): 0.8506; CMV-LACZ in Myotubes (β-galactosidase activity relative to DMSO) ([3]; 10 uM): 0.8294; CMV-LACZ in Myotubes (β-galactosidase activity relative to DMSO) ([3]; 20 uM): 0.8781; CMV-LACZ in Myotubes (β-galactosidase activity relative to DMSO) ([3]; 40 uM): 0.9211
O=C(COc1cc2oc(=O)c3c(c2cc1Cl)CCCC3)NCC1CCC(C(=O)O)CC1 (centres unmarked) [MLS001157804-01] | – | – | – | – | – | – | – | – | – | – | – | – | 0.703 | 0.9842 | 1.05 | 1.07 | 0.879 | 0.9385 | 0.998 | 1.117 | Burkin Assay in Myoblasts, value relative to DMSO ([1]; 20 uM): 1.052; Burkin Assay in Myoblasts, value relative to DMSO ([1]; 40 uM): 1.104; Burkin Assay in Myotubes (signal relative to DMSO) ([2]; 0.5 uM): 1.045; Burkin Assay in Myotubes (signal relative to DMSO) ([2]; 1 uM): 1.013; Burkin Assay in Myotubes (signal relative to DMSO) ([2]; 5 uM): 1.031; Burkin Assay in Myotubes (signal relative to DMSO) ([2]; 10 uM): 1.083; Burkin Assay in Myotubes (signal relative to DMSO) ([2]; 20 uM): 1.069; Burkin Assay in Myotubes (signal relative to DMSO) ([2]; 40 uM): 1.188
